Data as given in article PMC8767972 (Slas Discovery, 2022).

Assays:
NL63 main protease = NL63 main protease (Human coronavirus NL63, UniProt P0C6X5); type: biochemical, NL63 CoV; conditions: read-out: NL63 IC50
HKU1 main protease = HKU1 main protease (Human coronavirus HKU1, UniProt P0C6X2); type: biochemical, HKU1 CoV; conditions: read-out: HKU1 IC50
Chain of HKU1 main protease (P0C6X2 3335-3637 limits assumed): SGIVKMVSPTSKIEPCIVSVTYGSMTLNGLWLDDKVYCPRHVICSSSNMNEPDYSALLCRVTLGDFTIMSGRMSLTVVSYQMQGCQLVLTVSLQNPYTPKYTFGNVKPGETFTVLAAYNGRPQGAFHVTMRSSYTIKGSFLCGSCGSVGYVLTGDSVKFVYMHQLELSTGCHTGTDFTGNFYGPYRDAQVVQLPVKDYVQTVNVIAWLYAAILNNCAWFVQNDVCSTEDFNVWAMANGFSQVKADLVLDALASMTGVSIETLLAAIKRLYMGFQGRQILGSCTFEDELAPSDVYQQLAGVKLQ

Chain of NL63 main protease (P0C6X5 2940-3242 limits assumed): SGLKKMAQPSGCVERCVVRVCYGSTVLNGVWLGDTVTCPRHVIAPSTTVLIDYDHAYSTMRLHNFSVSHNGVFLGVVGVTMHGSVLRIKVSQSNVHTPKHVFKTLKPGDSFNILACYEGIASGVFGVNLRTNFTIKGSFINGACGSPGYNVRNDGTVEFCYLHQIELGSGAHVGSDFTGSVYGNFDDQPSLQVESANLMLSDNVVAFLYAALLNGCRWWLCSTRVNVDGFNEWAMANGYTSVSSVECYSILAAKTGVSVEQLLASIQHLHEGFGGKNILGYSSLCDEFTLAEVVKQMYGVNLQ

CC(C)C[C@H](NC(=O)OCc1ccccc1)C(=O)N[C@@H](CC1CCNC1=O)C(O)S(=O)(=O)O (some centres unmarked) [GC376]
IC50 (NL63 main protease): 52 nM | IC50 (HKU1 main protease): 12 nM
